Experimental data from patent publication US20260015358A1, “BICYCLIC DERIVATIVES, COMPOSITIONS AND USES THEREOF” (Danatlas Pharmaceuticals Co., Ltd., priority 2023, published 2026).

Legend:
[1] = target: T1, WRN [UniPro: Q14191 (WRN_HUMAN), N500-C946] (Homo sapiens (Human), UniProt Q14191); experiment: WRN ATPase assay (ADP-Glo); format: biochemical; conditions: WRN enzymatic activity assay
Protocol: WRN ATPase assay was initiated to evaluate potential inhibitory effect of compounds for ATP hydrolysis activity of WRN protein. WRN [UniPro: Q14191 (WRN_HUMAN), N500-C946] was expressed and purified in insect system and stored at −80° C. in aliquots. […] ADP quantity produced from ATP hydrolysis by WRN catalytic reaction was measured using a commercially available ADP-Glo Assay (ADP-Glo™ Kinase Assay from Promega, 10000 assays, #V9102). […] Compounds dissolved in DMSO (Sigma, D8418) were plated into a 96-well intermediate plate (BioFil, VWP-032-096) for 3-fold serial titration for 10 points using DMSO, and well-to-well transfer the titrated compounds into another 96-well intermediate plate including assay buffer in advance. Shake the 96-well intermediate plate at 600 rpm for 10 min to fully mix. Specifically, a 4× working mixture of WRN was diluted to a concentration of 8 nM in assay buffer. […] After centrifuging at 1000 rpm and shaking at 500 rpm, the assay plate was pre-incubated for 30 min. Then, 5 μL 2×FORKF DNA and ATP working mixture was dispensed into assay plate. Plate was sealed, centrifuged and incubated for an additional 40 min. at 37° C. The reaction was stopped with the addition of 10 μL of the first ADP-Glo reagent and incubated for 40 min. to remove the excess amount of ATP. Afterwards, 20 μL of ATP detection reagent was added and incubated for 30 min. before reading. Luminescence output was recorded using BMG CLARIO star plus reader. Each concentration of compound was tested in duplicates in the assay plate. Average luminescence signal of high control (Wells with 1% DMSO) was calculated as High Control (HC). Average luminescence signal of low control (Wells with no WRN protein) was calculated as Low control (LC).
(§1) IC50 values were determined by fitting the data to the standard 4 parameters with Hill Slope using GraphPad Prism software.

[2] = target: T1, WRN [UniPro: Q14191 (WRN_HUMAN), N500-C946]; experiment: WRN unwinding assay (FORKF DNA, fluorescence); format: biochemical; conditions: Table 14
Protocol: WRN unwinding assay was initiated to evaluate potential inhibitory effect of compounds for WEN helicase activity. WRN [UniPro: Q14191 (WRN_HUMAN), N500-C946] was expressed and purified in insect system and stored at −80° C. in aliquots. […] Compounds dissolved in DMSO (Sigma, D8418) were plated into a 96-well intermediate plate (BioFil, VWP-032-096) for 3-fold serial titration for 10 points using DMSO, and well-to-well transfer the titrated compounds into another 96-well intermediate plate including assay buffer in advance. Shake the 96-well intermediate plate at 600 rpm for 10 min. to fully mix. Specifically, a 3× working mixture of WRN was diluted to a concentration of 60 nM in assay buffer. […] After centrifuging at 1000 rpm and shaking at 500 rpm, the assay plate was pre-incubated for 30 min. Then, […] 3×FORKF DNA and ATP working mixture was dispensed into assay plate. Plate was sealed, centrifuged and incubated for an additional 40 min. at 25° C. […] Each concentration of compound was tested in duplicates in the assay plate. Average fluorescence signal of high control (Wells with 1% DMSO) was calculated as High Control (HC). Average fluorescence signal of low control (Wells with no WRN protein) was calculated as Low control (LC).
as §1

T1 sequence (Q14191 500-946): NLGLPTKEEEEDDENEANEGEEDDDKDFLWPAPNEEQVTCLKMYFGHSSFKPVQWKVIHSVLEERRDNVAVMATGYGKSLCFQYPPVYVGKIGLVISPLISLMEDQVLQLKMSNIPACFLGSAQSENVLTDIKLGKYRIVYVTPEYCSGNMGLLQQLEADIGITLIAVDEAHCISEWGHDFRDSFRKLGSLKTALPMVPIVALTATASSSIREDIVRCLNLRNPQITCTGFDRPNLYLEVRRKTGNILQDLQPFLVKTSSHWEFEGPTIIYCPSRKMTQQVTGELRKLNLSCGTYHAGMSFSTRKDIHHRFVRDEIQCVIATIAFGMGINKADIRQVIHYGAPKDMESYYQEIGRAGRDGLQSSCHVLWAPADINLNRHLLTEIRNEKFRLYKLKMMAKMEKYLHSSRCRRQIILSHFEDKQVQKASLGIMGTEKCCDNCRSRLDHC

Row | IC50 [1] [nM] | IC50 [2] [nM] | SMILES
1 | 100 to 1000 | 100 to 1000 | CCc1c(N2CCN(C(=O)c3nc(C(F)(F)F)c[nH]3)CC2)c(=O)n2nc(C3=CCOCC3)nc2n1CC(=O)Nc1ccc(C(F)(F)F)cc1Cl [Example 1, N-(2-Chloro-4-(trifluoromethyl)phenyl)-2-(2-(3,6-dihydro-2H-pyran-4-yl)-5-ethyl-7-oxo-6-(4-(4-(trifluoromethyl)-1H-imidazole-2-carbonyl)piperazin-1-yl)-[1,2,4]triazolo[1,5-a]pyrimidin-4(7H)-yl)acetamide]
2 | < 100 | < 100 | CCc1c(N2CCN(C(=O)c3cnc4[nH]ncc4c3O)CC2)c(=O)n2nc(C3=CCOCC3)nc2n1CC(=O)Nc1ccc(C(F)(F)F)cc1Cl [Example 3, N-(2-Chloro-4-(trifluoromethyl)phenyl)-2-(2-(3,6-dihydro-2H-pyran-4-yl)-5-ethyl-6-(4-(4-hydroxy-1H-pyrazolo[3,4-b]pyridine-5-carbonyl)piperazin-1-yl)-7-oxo-[1,2,4]triazolo[1,5-a]pyrimidin-4(7H)-yl)acetamide]
3 | < 100 | < 100 | CCc1c(N2CCN(C(=O)c3c(O)cc(C)oc3=O)CC2)c(=O)n2nc(C3=CCOCC3)nc2n1CC(=O)Nc1ccc(C(F)(F)F)cc1Cl [Example 4, N-(2-Chloro-4-(trifluoromethyl)phenyl)-2-(2-(3,6-dihydro-2H-pyran-4-yl)-5-ethyl-6-(4-(4-hydroxy-6-methyl-2-oxo-2H-pyran-3-carbonyl)piperazin-1-yl)-7-oxo-[1,2,4]triazolo[1,5-a]pyrimidin-4(7H)-yl)acetamide]
4 | > 1000 | > 1000 | CCNC(=NCCCN(C)C)N1CCN(c2c(CC)n(CC(=O)Nc3ccc(C(F)(F)F)cc3C)c3nc(C4=CCOCC4)nn3c2=O)CC1 [Example 5, 2-(2-(3,6-Dihydro-2H-pyran-4-yl)-6-(4-(N′-(3-(dimethylamino)propyl)-N-ethylcarbamimidoyl)piperazin-1-yl)-5-ethyl-7-oxo-[1,2,4]triazolo[1,5-a]pyrimidin-4(7H)-yl)-N-(2-methyl-4-(trifluoromethyl)phenyl)acetamide]
5 |  | 100 to 1000 | CCc1c(N2CCN(C(=O)c3cc4c(OC)ccnc4[nH]3)CC2)c(=O)n2nc(C3=CCOCC3)nc2n1CC(=O)Nc1ccc(C(F)(F)F)cc1Cl [Example 302, N-(2-Chloro-4-(trifluoromethyl)phenyl)-2-(2-(3,6-dihydro-2H-pyran-4-yl)-5-ethyl-6-(4-(4-methoxy-1H-pyrrolo[2,3-b]pyridine-2-carbonyl)piperazin-1-yl)-7-oxo-[1,2,4]triazolo[1,5-a]pyrimidin-4(7H)-yl)acetamide]
6 |  | 100 to 1000 | CCc1c(N2CCN(C(=O)c3c[nH]c(=O)[nH]3)CC2)c(=O)n2nc(C3=CCOCC3)nc2n1CC(=O)Nc1ccc(C(F)(F)F)cc1Cl [Example 316, N-(2-Chloro-4-(trifluoromethyl)phenyl)-2-(2-(3,6-dihydro-2H-pyran-4-yl)-5-ethyl-7-oxo-6-(4-(2-oxo-2,3-dihydro-1H-imidazole-4-carbonyl)piperazin-1-yl)-[1,2,4]triazolo[1,5-a]pyrimidin-4(7H)-yl)acetamide]
7 |  | 100 to 1000 | CCc1c(N2CCN(C(=O)CNC(=O)CN3CCCC3)CC2)c(=O)n2nc(C3=CCOCC3)nc2n1CC(=O)Nc1ccc(C(F)(F)F)cc1Cl [Example 339, N-(2-Chloro-4-(trifluoromethyl)phenyl)-2-(2-(3,6-dihydro-2H-pyran-4-yl)-5-ethyl-7-oxo-6-(4-((2-(pyrrolidin-1-yl)acetyl)glycyl)piperazin-1-yl)-[1,2,4]triazolo[1,5-a]pyrimidin-4(7H)-yl)acetamide]

Continued, compound first:

Row | SMILES | IC50 [1] [nM] | IC50 [2] [nM]
8 | CCc1c(N2CCN(C(=O)c3sc4cccnc4c3N)CC2)c(=O)n2nc(C3=CCOCC3)nc2n1CC(=O)Nc1ccc(C(F)(F)F)cc1Cl [Example 2, 2-(6-(4-(3-Aminothieno[3,2-b]pyridine-2-carbonyl)piperazin-1-yl)-2-(3,6-dihydro-2H-pyran-4-yl)-5-ethyl-7-oxo-[1,2,4]triazolo[1,5-a]pyrimidin-4(7H)-yl)-N-(2-chloro-4-(trifluoromethyl)phenyl)acetamide] | 100 to 1000 | 100 to 1000
9 | CCc1c(N2CCN(C(=O)c3sc4cnccc4c3N)CC2)c(=O)n2nc(C3=CCOCC3)nc2n1CC(=O)Nc1ccc(C(F)(F)F)cc1Cl [Example 6, 2-(6-(4-(3-Aminothieno[2,3-c]pyridine-2-carbonyl)piperazin-1-yl)-2-(3,6-dihydro-2H-pyran-4-yl)-5-ethyl-7-oxo-[1,2,4]triazolo[1,5-a]pyrimidin-4(7H)-yl)-N-(2-chloro-4-(trifluoromethyl)phenyl)acetamide] | 100 to 1000 | < 100
10 | CCc1c(N2CCN(C(=O)CNC(=O)c3ccccc3F)CC2)c(=O)n2nc(N3CC(C#N)C3)nc2n1CC(=O)Nc1ccc(C(F)(F)F)cc1Cl [Example 243, N-(2-(4-(4-(2-((2-Chloro-4-(trifluoromethyl)phenyl)amino)-2-oxoethyl)-2-(3-cyanoazetidin-1-yl)-5-ethyl-7-oxo-4,7-dihydro-[1,2,4]triazolo[1,5-a]pyrimidin-6-yl)piperazin-1-yl)-2-oxoethyl)-2-fluorobenzamide] |  | 100 to 1000
11 | CCc1c(N2CCN(C(=O)CNC(=O)c3ccccc3F)CC2)c(=O)n2nc(N3CCOCC3)nc2n1CC(=O)Nc1ccc(C(F)(F)F)cc1Cl [Example 245, N-(2-(4-(4-(2-((2-Chloro-4-(trifluoromethyl)phenyl)amino)-2-oxoethyl)-5-ethyl-2-morpholino-7-oxo-4,7-dihydro-[1,2,4]triazolo[1,5-a]pyrimidin-6-yl)piperazin-1-yl)-2-oxoethyl)-2-fluorobenzamide] |  | < 100
12 | CCc1c(N2CCN(C(=O)CNC(=O)c3ccccc3N3CCOCC3)CC2)c(=O)n2nc(N3CCOCC3)nc2n1CC(=O)Nc1ccc(C(F)(F)F)cc1Cl [Example 247, N-(2-(4-(4-(2-((2-Chloro-4-(trifluoromethyl)phenyl)amino)-2-oxoethyl)-5-ethyl-2-morpholino-7-oxo-4,7-dihydro-[1,2,4]triazolo[1,5-a]pyrimidin-6-yl)piperazin-1-yl)-2-oxoethyl)-2-morpholinobenzamide] |  | 100 to 1000
13 | CCc1c(N2CCN(C(=O)CNC(=O)c3c(O)cccc3F)CC2)c(=O)n2nc(C3=CCOCC3)nc2n1CC(=O)Nc1ccc(C(F)(F)F)cc1Cl [Example 294, N-(2-(4-(4-(2-((2-Chloro-4-(trifluoromethyl)phenyl)amino)-2-oxoethyl)-2-(3,6-dihydro-2H-pyran-4-yl)-5-ethyl-7-oxo-4,7-dihydro-[1,2,4]triazolo[1,5-a]pyrimidin-6-yl)piperazin-1-yl)-2-oxoethyl)-2-fluoro-6-hydroxybenzamide] |  | 100 to 1000
14 | CCc1c(N2CCN(C(=O)c3nnc(-c4ccccc4F)[nH]3)CC2)c(=O)n2nc(C3=CCOCC3)nc2n1CC(=O)Nc1ccc(C(F)(F)F)cc1F [Example 309, 2-(2-(3,6-Dihydro-2H-pyran-4-yl)-5-ethyl-6-(4-(5-(2-fluorophenyl)-4H-1,2,4-triazole-3-carbonyl)piperazin-1-yl)-7-oxo-[1,2,4]triazolo[1,5-a]pyrimidin-4(7H)-yl)-N-(2-fluoro-4-(trifluoromethyl)phenyl)acetamide] |  | 100 to 1000
15 | CCc1c(N2CCN(C(=O)c3[nH]c(=O)oc3C(F)(F)F)CC2)c(=O)n2nc(C3=CCOCC3)nc2n1CC(=O)Nc1ccc(C(F)(F)F)cc1Cl [Example 317, N-(2-Chloro-4-(trifluoromethyl)phenyl)-2-(2-(3,6-dihydro-2H-pyran-4-yl)-5-ethyl-7-oxo-6-(4-(2-oxo-5-(trifluoromethyl)-2,3-dihydrooxazole-4-carbonyl)piperazin-1-yl)-[1,2,4]triazolo[1,5-a]pyrimidin-4(7H)-yl)acetamide] |  | 100 to 1000
16 | CCc1c(N2CCN(C(=O)/C=C/c3cnccc3O)CC2)c(=O)n2nc(C3=CCOCC3)nc2n1CC(=O)Nc1ccc(C(F)(F)F)cc1F [Example 328, (E)-2-(2-(3,6-Dihydro-2H-pyran-4-yl)-5-ethyl-6-(4-(3-(4-hydroxypyridin-3-yl)acryloyl)piperazin-1-yl)-7-oxo-[1,2,4]triazolo[1,5-a]pyrimidin-4(7H)-yl)-N-(2-fluoro-4-(trifluoromethyl)phenyl)acetamide] |  | 100 to 1000
